Laboratory results reported in article PMC12040169 (PLOS Biology, 2025).

Test: in vitro
Conditions: human, hela cells, % viability

Structure (SMILES) | viability at 28.5 h, 10 µM [%]
Cc1noc(C)c1CC(=O)NC(C)CCc1ccc(F)cc1 (stereo not shown) [CBK281511] | 89.8
O=C(C1CC2C=CC1C21CC1)N1CCCC(c2nc3ccccc3[nH]2)C1 (stereo not shown) [CBK281513] | 91.4
CC1CCc2onc(C(=O)NCc3nccn3C)c2C1 (stereo not shown) [CBK281514] | 68.9
Cc1cc(C)n(C(C)CC(=O)NCc2ccccc2-n2ccnc2)n1 (stereo not shown) [CBK281518] | 84.3
CC1Oc2ccc(NC(=O)C3CC4C=CC3C43CC3)cc2NC1=O (stereo not shown) [CBK281523] | 101
CC(C)Cc1cc(CNC(=O)C(C)n2cc(Cl)cn2)on1 (stereo not shown) [CBK281524] | 92.8
O=C(C1CC2C=CC1C21CC1)N1CCC(Oc2cccc(F)c2)CC1 (stereo not shown) [CBK281525] | 85.4
CCN1CC(C(=O)Nc2nc3c(s2)CCCCCC3)CC1=O (stereo not shown) [CBK281526] | 84.2
COc1ccc2[nH]c3c(c2c1)CN(C(=O)CCC1CCCO1)CC3 (stereo not shown) [CBK281530] | 99.7
Cc1cccc(OCC2CCCN(C(=O)Cn3cc(C)cn3)C2)c1 (stereo not shown) [CBK281531] | 89.9
CCCn1ncc(C(=O)NC(C)c2c(C)nn(CC)c2C)c1C (stereo not shown) [CBK281532] | 85.5
CCn1nc(C)c(C(C)NC(=O)c2ccnn2C(F)F)c1C (stereo not shown) [CBK281535] | 88.4
Cc1[nH]c2ccc(CNC(=O)Cn3ccnc3C(C)C)cc2c1C [CBK281540] | 87.6
CC(C)(C)OC(=O)N1CCc2[nH]nc(Nc3ccccc3)c2C1 [CBK281541] | 80
O=C([C@@H]1C[C@@H]2C=C[C@H]1C2)N1CCC(c2noc3cc(F)ccc23)CC1 [CBK281542] | 76.5
CCn1cc(CN2CCN(C(=O)C3C4CCCCC43)CC2)c(C)n1 (stereo not shown) [CBK281545] | 97.1
CCCn1c(C)cc2cc(NC(=O)Cn3cc(C)nn3)ccc21 [CBK281548] | 104
O=C(NCC1(c2ccccc2F)CCOCC1)[C@@H]1C[C@@H]2C=C[C@H]1C2 [CBK281552] | 91.6
CCOc1ccc2c(c1)cc(C(=O)NCc1cc(CC)no1)n2C [CBK281553] | 95.5
CCc1cc(CNC(=O)c2cc(C)nc3c(C)cccc23)on1 [CBK281554] | 108
CCc1cc(CNC(=O)c2ccc(C)c(-n3nc(C)cc3C)c2)on1 [CBK281557] | 91.7

Structure (SMILES) | viability at 28.5 h, 10 µM [%]
Cc1nc(C)n(CC(=O)NCCCc2ccc(Cl)cc2)n1 [CBK281559] | 90.9
Cc1cc(C)n(CC(=O)NCCCc2ccc(Cl)cc2)c(=O)n1 [CBK281561] | 96.3
CC(=O)N1CCC[C@@H](N)[C@@H]1c1ccccc1F [CBK281562] | 111
N[C@@H]1CCCN(C(=O)C2CC2)[C@H]1c1ccccc1F [CBK281563] | 97
Cc1ccc(C(=O)NCCCc2ccc(Cl)cc2)c(=O)n1C [CBK281567] | 80.4
CCn1nc(C)c(-c2cncn2CCN(C)C2CCCC2)c1C [CBK281569] | 109
CCN1CCc2cc(-c3cncn3CCCn3nc(C)cc3C)ccc21 [CBK281572] | 104
COc1ccc2oc(C(=O)NC(C)c3cn(C)nc3C)cc2c1 (stereo not shown) [CBK281573] | 90.9
Cn1nc(-c2ccc(F)cc2)cc1C(=O)NCCn1ccnc1 [CBK281576] | 87.8
CC(C)(C)OC(=O)N1CCCC1C1COc2ccccc2C1=O (stereo not shown) [CBK281579] | 89.2
CC(C)(C)C1CCc2onc(C(=O)NCCn3ccnc3)c2C1 (stereo not shown) [CBK281581] | 87.1
O=C(NCCn1ccnc1)C1CC(=O)N(c2cccc(F)c2)C1 (stereo not shown) [CBK281582] | 105
Cn1c(C(=O)Nc2ccc(Cn3cncn3)cc2)cc2cc(F)ccc21 [CBK281584] | 104
Cc1nccn1CCCNC(=O)c1ccc(N2CCCC2)cc1 [CBK281589] | 81.6
CCc1cc(CNC(=O)C(c2ccccc2)N2CCC(C)CC2)on1 (stereo not shown) [CBK281592] | 92.4
Cc1cc(C)n(C(C(=O)NCCOc2ccc(F)cc2)C(C)C)n1 (stereo not shown) [CBK281595] | 81.4
O=C(NCCOc1ccc(F)cc1)c1cccc(-n2cccn2)c1 [CBK281596] | 101
CC(C)c1nccn1CC(=O)NCCOc1ccc(F)cc1 [CBK281597] | 89.6
CC1CCCN(CC(C)(C)NC(=O)c2cc(C(F)(F)F)nn2C)C1 (stereo not shown) [CBK281598] | 87.9
CC1(NC(=O)c2cccc(OCCN3CCCC3=O)c2)CCC1 [CBK281602] | 92.8
COc1nn(CC(=O)NC2(C)CCC2)c(=O)c2ccccc12 [CBK281603] | 83.2

Structure (SMILES) | viability at 28.5 h, 10 µM [%]
CC1(NC(=O)CC(c2ccncc2)c2c[nH]c3ccccc23)CCC1 (stereo not shown) [CBK281610] | 88.8
O=C(c1cc2c(F)cccc2[nH]1)N1CCCCC1CCN1CCCC1 (stereo not shown) [CBK281612] | 85.7
CCn1c(CN2CCC(n3nc(C)cc3C)CC2)nc2ccccc21 [CBK281615] | 88.5
Cc1ccn2c(CN3CCC(n4nc(C)cc4C)CC3)c(C)nc2c1 [CBK281616] | 83.6
Cc1cc(C)n(C2CCN(Cc3c(C)nc4c(C)cccn34)CC2)n1 [CBK281617] | 101
Cc1cc(C)n(C2CCN(Cc3nc4ccccc4n3C)CC2)n1 [CBK281621] | 84.3
Cc1cc(C)n(C2CCN(Cc3ccc4ccccc4n3)CC2)n1 [CBK281622] | 87.9
CCn1cc(-c2cncn2CCOc2ccc(C)cc2)cn1 [CBK281623] | 88.5
CC(NC(=O)CCc1ccncc1)c1ccc2c(c1)CCCO2 (stereo not shown) [CBK281624] | 88.3
Cc1ccn(CCNC(=O)C(C)Cc2cccs2)n1 (stereo not shown) [CBK281625] | 106
COc1ccc(CCNC(=O)c2cc3c([nH]c2=O)CCC3)cc1C [CBK281627] | 83.2
Cc1nc(C)c(C(=O)NC2CCCNC2=O)s1 (stereo not shown) [CBK281628] | 86.8
CCc1nccn1CCC(=O)Nc1ccc2c(c1)nc(CC)n2CC [CBK281629] | 81.2
Cc1ccc2oc(C(=O)N(C)Cc3c(C)nn(C)c3C)c(C)c2c1 [CBK281631] | 80.9
Cc1cc(C(=O)NC(C)Cn2nc(C)cc2C)c2cccc(C)c2n1 (stereo not shown) [CBK281635] | 91.4
CC(NC(=O)Cn1c(=O)oc2ccc(Cl)cc21)C1CC2CCC1C2 (stereo not shown) [CBK281636] | 87.7
Cc1nc(-c2cccnc2)sc1C(=O)NC(C)C1CC2CCC1C2 (stereo not shown) [CBK281637] | 84.2
CCc1nccn1CC(=O)NCC(C)n1nc(C)cc1C (stereo not shown) [CBK281638] | 80.4
Cc1cc(C)n(C(C)CNC(=O)C(C)Cn2cccn2)n1 (stereo not shown) [CBK281639] | 87.6
O=C(C1CC2C=CC1C21CC1)N1CCN(c2nccs2)CC1 (stereo not shown) [CBK281640] | 90.4
O=C(c1ccncc1)N1CCCCC1c1nc2ccccc2[nH]1 (stereo not shown) [CBK281641] | 87.2

Structure (SMILES) | viability at 28.5 h, 10 µM [%]
COc1ccc(CCNC(=O)CCn2nc(C)c(Cl)c2C)cc1C [CBK281643] | 89.5
CCc1cc(CNC(=O)C(c2ccc(F)cc2)N(C)C)on1 (stereo not shown) [CBK281648] | 88.4
Cc1nc(C)n(CC(=O)N2CCc3sccc3C2c2ccco2)n1 (stereo not shown) [CBK281649] | 98.8
CC(Cn1cc(Cl)cn1)C(=O)NC(C)C1CC2CCC1C2 (stereo not shown) [CBK281650] | 110
Cc1cc(C(=O)NC(C)C2CC3CCC2C3)c2cnn(C(C)C)c2n1 (stereo not shown) [CBK281652] | 96
CCc1nnsc1C(=O)N1CCc2[nH]c3c(C)cccc3c2C1 [CBK281655] | 86.2
CC(C)C(=O)N1C[C@H]2NC(=O)c3ccccc3C(=O)[C@@]2(C)C1 [CBK281658] | 103
CC(C)CC(=O)N1C[C@H]2NC(=O)c3ccccc3C(=O)[C@@]2(C)C1 [CBK281659] | 96.1
CC(C)C(NC(=O)c1cc2c([nH]c1=O)CCC2)c1ccc(F)cc1 (stereo not shown) [CBK281662] | 93.4
Cn1nccc1CN1CCCC(COc2ccccc2F)C1 (stereo not shown) [CBK281663] | 87.2
CC(NC(=O)CCc1ccncc1)c1nc2ccccc2s1 (stereo not shown) [CBK281666] | 98.9
CCc1cc(CNC(=O)C(c2ccc(Cl)cc2)N(C)C)on1 (stereo not shown) [CBK281670] | 96.6
C[C@]12CN(C(=O)C3CCCC3)C[C@H]1NC(=O)c1ccccc1C2=O [CBK281672] | 95.4
CC(C)C(=O)N[C@H]1CC[C@]2(CC1)CNC(=O)c1ccccc1O2 [CBK281675] | 103
CC1CCCN(CC(C)(C)NC(=O)c2cc(C3CC3)on2)C1 (stereo not shown) [CBK281677] | 94.6
Cc1nonc1CNC(=O)C1CC2C=CC1C21CC1 (stereo not shown) [CBK281678] | 91.4
CCN1C(=O)c2ccccc2C(=O)[C@@]2(C)CN(C(=O)C(C)C)C[C@@H]12 [CBK281680] | 91.8
CCC(=O)N[C@H]1CC[C@]2(CC1)CNC(=O)c1ccccc1O2 [CBK281681] | 106
CC(=O)N(C)[C@H]1CC[C@]2(CC1)CNC(=O)c1ccccc1O2 [CBK281682] | 101
